Results taken from patent US5462927A, “Peptides aiding nerve regeneration” (The Administrators of the Tulane Educational Fund, priority 1992, dated 1995).
Square brackets hold non-standard residues; d marks the D form. Peptide text beside a SMILES is read from it.

Columns and labels:
[1] = system: crushed peroneal nerve; endplates of the EDL; test: Endplate morphology of EDL muscle after peroneal nerve crush (silver-cholinesterase stain); type: in vivo, rat
Experimental: The effect of BIM-22015 regeneration of the crushed peroneal nerve in the rat was assessed using both morphological and physiological studies, as follows. Both locomotor pattern and endplate morphology during the early stages of crushed nerve regeneration were assessed after treatment with BIM-220150 Adult Sprague-Dawley male rats (Taconic Farms) were maintained at 25° C. on a 12 hour light and a 12 hour dark cycle and were supplied with standard rat chow and water ad lib. All surgery was performed under anesthesia with 8% chlorohydrate (0.6 ml/100 g I.P.). Denervation was accomplished using a #5 Dumont forceps with a uniformly filed tip to crush the peroneal nerve. This crush produced a 1 mm wide lesion just proximal to the EDL (extention digitarum longus) muscle. The wound was closed with surgical staples. Following surgery, the animal was immediately administered saline or BIM-22015 in one of the following dosages: (1) 0.9% saline, (2) 10.0 ug BIM-22015, (3) 5.0 ug BIM-22015, (3) 1.0 ug BIM-22015, or (4) 0.1 ug BIM-22015 (per animal). Administration continued once every 48 hours for 5 days; on day 5, the rats were killed and tissues taken for morphological analysis. All injections and surgeries occurred between 10:00 and 12:00 noon.
Morphological studies of crushed nerve regeneration were performed as follows. On day 5, the rats were anesthetized with 8% chlorohydrate (0.6 ml/100 g IP) before surgery. The animal was placed ventral side down and a skin incision was made on the hindlimb from the lateral epicondyle of the femur to the lateral malleolus in the ankle. The extensor digitorium longus muscle (EDL) was then carefully exposed from its surrounding connective tissue and extreme care taken to preserve the blood supply. The EDL is a heterogenous muscle consisting of both fast white muscle fibers and slow red muscle fibers. It is classified as a fast muscle based upon its isometric twitch parameters. The origin of the EDL is the epicondyle of the femur to the distal tendon which divides into four parts with insertions into the third phalange base of the second to the fifth digits. It is innervated by the peroneal nerve and its blood is supplied by the anterior tibial artery. The muscle was prepared for staining as follows.
The silver-cholinesterase method of staining of Pecot-Dechavssine et al. (1979 Stain. Technol. 54:25) was used to stain the endplates, or neuromuscular junctions, of the EDL. Briefly, the muscle was fixed in situ by 1% neutral formalin in normal Ringer's solution. The muscle was then excised and placed in fresh 1% neutral formalin solution for extra 3-4 minutes. The endplates were localized with the stain described by Karnovsky et al. (1964, J. Hist. Chem. Cytochem. 12:219) for 7-15 minutes under visual control. After localization, the EDL was soaked in 5% neutral formalin solution for 20 minutes, then washed in Triton X-100 detergent for 1 hour. After the detergent step, the EDL was fixed in 80% ethanol solution for 1 hour. Finally, the endplates were impregnated with silver using 0.5% protargol solution overnight (12-30 hrs., at 37° C.).
The following day, the excess silver was reduced using a Bodian developer for 18 minutes. The muscle was rinsed in distilled water, finely teased, and mounted using a glycoglyerol mounting gel.
The endplates were observed using Olympus BH series binocular microscope at a magnification of 100× using an oil immersion objective lens. A low light sensitive video camera mounted on top of the Olympus projected the slide onto a black and white monitor. A Bioquant image digitizer with a manual optic mouse was used to determine the following parameters: (1) endplate […], (2) endplate area, (3) endplate internal branching, and (4) muscle fiber diameter. The Bioquant statistical package was used to determine statistical differences, and the data are expressed as means and standard error of the mean. The Student's t-test and the ANOVA statistical tests were performed. […]

crushed sciatic nerve = test: Sensorimotor function test (sciatic nerve regeneration assay, foot-flick response to thermal pain); type: in vivo, rat; details: s.c. every 24 hr for approximately 20-25 days; head prints only 'μG/24 HRS'; vs 0.9% NaCl control
Experimental: Female, Sprague-Dawley rats (Charles River Breeding Labs) were used at an age of 7-8 weeks (120-140 g). Under ether anesthesia, the right sciatic nerve was carefully exposed and crushed with constant pressure, hemostatic forceps for 30 sec prior to closure and suturing of the incision. After surgery, the animals were randomly assigned to treatment groups of 10. The test peptides were administered s.c. in 0.9% NaCl in a vol of 0.1 ml. NaCl (0.9%) served as the control. Injections were started immediately after surgery and given every 24 hr thereafter for approximately 20-25 days. The criterion of sciatic nerve regeneration was based on the recovery of the foot-flick response to thermal pain. Beginning 48 hr after surgery, the rats were tested five days a week for the ability to withdraw, from a heat source, the paw innervated by the crushed nerve. All sensorimotor testing was performed between 1:00 and 3:00 p.m. Specifically, the rat was immobilized by wrapping in a towel, and the sole of the lesioned limb was placed over the aperture of a modified d'Amour apparatus. The time required to withdraw the foot was recorded to the nearest 0.1 of sec using a digital stopwatch. If no response occurred by 5 sec, the test was terminated to avoid tissue damage. The observe measuring the foot-flick response was blind to the treatment group being tested. All animals were acclimatized to the testing procedure prior to surgery. Baseline values were obtained by determining the response time for the unlesioned limb.

[2] = system: sciatic nerve after transection and end-to-end suture; test: Morphometry after section and suture of sciatic nerve; type: in vivo, rabbit
[3] = BIM 0.1 μG per animal every 48 hours, day 5, A = p < 0.025
[4] = BIM 0.1 μG per animal every 48 hours, day 5, A = p < 0.025, listed as BIM
[5] = BIM 1.0 μG per animal every 48 hours, day 5
[6] = BIM 5.0 μG per animal every 48 hours, day 5
[7] = BIM 10.0 μG per animal every 48 hours, day 5
[8] = 1 cm distal to the transection, 32 days p.op., 1 μg/kg per day s.c.
[9] = Region of the Transection, 32 days p.op., 1 μg/kg per day s.c.
[10] = Region of the Transection, 96 days p.op., 1 μg/kg per day s.c.

C[C@@H](N)C(=O)N[C@@H](CCC(N)=O)C(=O)N[C@@H](Cc1ccc(O)cc1)C(=O)N[C@@H](Cc1ccccc1)C(=O)N[C@@H](CCCNC(=N)N)C(=O)N[C@@H](Cc1c[nH]c2ccccc12)C(=O)NCC(N)=O [BIM-22015, D--Ala--Gln--Tyr--Phe--Arg--Trp--Gly--NH2] (H-[dA]QYFRWG-NH2)
Endplate Morphology: Muscle Fiber Diameter ([1]; BIM 0.1 μG per animal every 48 hours, day 5): 63.6(2.72) | Endplate Morphology: Internal Branching [1, 3]: significant increase | Endplate Morphology: Perimeter [1, 3]: significant increase | Endplate Morphology: Internal Branching [1, 4]: 260.5(39.2) | Endplate Morphology: Perimeter [1, 4]: 244.3(8.63) | Endplate Morphology: Internal Branching [1, 5]: 201.6(14.2) | Endplate Morphology: Perimeter [1, 5]: 231.7(5.22) | Endplate Morphology: Muscle Fiber Diameter ([1]; BIM 1.0 μG per animal every 48 hours, day 5, C = p < 0.005): high muscle hypertrophy | Endplate Morphology: Muscle Fiber Diameter ([1]; BIM 1.0 μG per animal every 48 hours, day 5, C = p < 0.005, listed as BIM): 76.9(1.70) | Endplate Morphology: Internal Branching [1, 6]: 220.2(18.7) | Endplate Morphology: Muscle Fiber Diameter [1, 6]: 74.2(2.35) | Endplate Morphology: Perimeter ([1]; BIM 5.0 μG per animal every 48 hours, day 5, B = p < 0.050): significant increase | Endplate Morphology: Perimeter ([1]; BIM 5.0 μG per animal every 48 hours, day 5, B = p < 0.050, listed as BIM): 204.2(5.98) | Endplate Morphology: Internal Branching [1, 7]: 173.2(14.6) | Endplate Morphology: Perimeter [1, 7]: 231.7(12.2) | Endplate Morphology: Muscle Fiber Diameter ([1]; BIM 10.0 μG per animal every 48 hours, day 5, C = p < 0.005): high muscle hypertrophy | Endplate Morphology: Muscle Fiber Diameter ([1]; BIM 10.0 μG per animal every 48 hours, day 5, C = p < 0.005, listed as BIM): 82.8(3.74) | % Reduction of Recovery Time (crushed sciatic nerve): 28% | light microscopic evaluation of semi-thin sections, control vs experimental groups ([2]; 0.5 μm sections after severance and end-to-end suture): did not disclose definite differences | growth of the myelin sheath in treated animals vs controls ([2]; 1 cm distal of the transection, period from the 32nd to the 96th day): almost twice as fast | Mean values of axon diameter [2, 8]: 1.545 μm | Mean values of myelin sheath thickness [2, 8]: 0.310 μm | Mean values of axon diameter ([2]; 1 cm distal to the transection, 96 days p.op., 1 μg/kg per day s.c.): 2.078 μm | Mean values of axon diameter [2, 9]: 1.888 μm | Mean values of myelin sheath thickness [2, 9]: 0.398 μm | Mean values of axon diameter [2, 10]: 2.335 μm | Mean values of myelin sheath thickness [2, 10]: 0.551 μm | Number of myelinated axons/0.004 sq. mm [2, 10]: 62 /0.004 sq. mm | statistically significant effect on the axon diameter ([2]; on the 32nd or on the 96th day p.op.): could not be demonstrated
